In US8778873B2, “Parenteral combination therapy for infective conditions with drug resistant bacterium” (Venus Remedies Limited, priority 2005, dated 2014):
Structures can show the parent of a compound that is named as a salt.

Legend:
S. pneumoniae = test: Average MIC data, growth at serial concentrations; format: cell-based
Source text: (§1) Minimum Inhibitory Concentration Data
(§2) Average MIC data with growth details in various concentration of ceftriaxone and vancomycin combination of the present invention, ceftriaxone alone and vancomycin alone with following bacteria such as MSSA, Enterococcus, S. pneumoniae, Penicillin resistant streptococcus pneumoniae, MRSA.

Streptococcus pneumoniae = test: Average MIC data, growth at serial concentrations; format: cell-based
Source text: as §1, §2

S. aurens (MRSA) = test: Average MIC data, growth at serial concentrations; format: cell-based
Source text: as §1, §2

S. aurens = test: Average MIC data, growth at serial concentrations; format: cell-based
Source text: as §1, §2

Enterococcus = test: Average MIC data, growth at serial concentrations; format: cell-based
Source text: as §1, §2

[1] = system: penicillin- and quinolone-resistant pneumococcal mutant strain; conditions: experimental rabbit meningitis; cited from earlier work

CO/N=C(\C(=O)N[C@@H]1C(=O)N2C(C(=O)O)=C(CSc3nc(=O)c(=O)[nH]n3C)CS[C@H]12)c1csc(N)n1 [Ceftriaxone, (Z)-7-[2-(2-Aminothiazole-4-yl)-2-methoxyiminoacetamido]-3-[(2,5-dihydro-6-hydroxy-2-methyl-5-oxo-1,2,4-triazin-3-yl)thiomethyl]-3-cephem-4-carboxylic acid, disodium salt, Sesquaterhydrate]
Growth Found: Growth at concentration (Average MIC data) (S. pneumoniae; 0.125 μg/ml) | Growth at concentration (Average MIC data) (S. pneumoniae; 0.25 μg/ml) | Growth at concentration (Average MIC data) (Streptococcus pneumoniae; 0.125 μg/ml) | Growth at concentration (Average MIC data) (Streptococcus pneumoniae; 0.25 μg/ml) | Growth at concentration (Average MIC data) (Streptococcus pneumoniae; 0.5 μg/ml) | Growth at concentration (Average MIC data) (Streptococcus pneumoniae; 1 μg/ml) | Growth at concentration (Average MIC data) (Streptococcus pneumoniae; 2 μg/ml) | Growth at concentration (Average MIC data) (S. aurens (MRSA); 0.125 μg/ml) | Growth at concentration (Average MIC data) (S. aurens (MRSA); 0.25 μg/ml) | Growth at concentration (Average MIC data) (S. aurens (MRSA); 0.5 μg/ml) | Growth at concentration (Average MIC data) (S. aurens (MRSA); 1 μg/ml) | Growth at concentration (Average MIC data) (S. aurens (MRSA); 2 μg/ml) | Growth at concentration (Average MIC data) (S. aurens (MRSA); 4 μg/ml) | Growth at concentration (Average MIC data) (S. aurens (MRSA); 8 μg/ml) | Growth at concentration (Average MIC data) (S. aurens (MRSA); 16 μg/ml) | Growth at concentration (Average MIC data) (S. aurens (MRSA); 32 μg/ml) | Growth at concentration (Average MIC data) (S. aurens; 0.125 μg/ml) | Growth at concentration (Average MIC data) (S. aurens; 0.25 μg/ml) | Growth at concentration (Average MIC data) (S. aurens; 0.5 μg/ml) | Growth at concentration (Average MIC data) (Enterococcus; 0.125 μg/ml) | Growth at concentration (Average MIC data) (Enterococcus; 0.25 μg/ml) | Growth at concentration (Average MIC data) (Enterococcus; 0.5 μg/ml)
No growth: Growth at concentration (Average MIC data) (S. pneumoniae; 0.5 μg/ml) | Growth at concentration (Average MIC data) (S. pneumoniae; 1 μg/ml) | Growth at concentration (Average MIC data) (S. pneumoniae; 2 μg/ml) | Growth at concentration (Average MIC data) (S. pneumoniae; 4 μg/ml) | Growth at concentration (Average MIC data) (S. pneumoniae; 8 μg/ml) | Growth at concentration (Average MIC data) (S. pneumoniae; 16 μg/ml) | Growth at concentration (Average MIC data) (S. pneumoniae; 32 μg/ml) | Growth at concentration (Average MIC data) (S. pneumoniae; 64 μg/ml) | Growth at concentration (Average MIC data) (S. pneumoniae; 128 μg/ml) | Growth at concentration (Average MIC data) (Streptococcus pneumoniae; 4 μg/ml) | Growth at concentration (Average MIC data) (Streptococcus pneumoniae; 8 μg/ml) | Growth at concentration (Average MIC data) (Streptococcus pneumoniae; 16 μg/ml) | Growth at concentration (Average MIC data) (Streptococcus pneumoniae; 32 μg/ml) | Growth at concentration (Average MIC data) (Streptococcus pneumoniae; 64 μg/ml) | Growth at concentration (Average MIC data) (Streptococcus pneumoniae; 128 μg/ml) | Growth at concentration (Average MIC data) (S. aurens (MRSA); 64 μg/ml) | Growth at concentration (Average MIC data) (S. aurens (MRSA); 128 μg/ml) | Growth at concentration (Average MIC data) (S. aurens; 1 μg/ml) | Growth at concentration (Average MIC data) (S. aurens; 2 μg/ml) | Growth at concentration (Average MIC data) (S. aurens; 4 μg/ml) | Growth at concentration (Average MIC data) (S. aurens; 8 μg/ml) | Growth at concentration (Average MIC data) (S. aurens; 16 μg/ml) | Growth at concentration (Average MIC data) (S. aurens; 32 μg/ml) | Growth at concentration (Average MIC data) (S. aurens; 64 μg/ml) | Growth at concentration (Average MIC data) (S. aurens; 128 μg/ml) | Growth at concentration (Average MIC data) (Enterococcus; 1 μg/ml) | Growth at concentration (Average MIC data) (Enterococcus; 2 μg/ml) | Growth at concentration (Average MIC data) (Enterococcus; 4 μg/ml) | Growth at concentration (Average MIC data) (Enterococcus; 8 μg/ml) | Growth at concentration (Average MIC data) (Enterococcus; 16 μg/ml) | Growth at concentration (Average MIC data) (Enterococcus; 32 μg/ml) | Growth at concentration (Average MIC data) (Enterococcus; 64 μg/ml) | Growth at concentration (Average MIC data) (Enterococcus; 128 μg/ml)

CN[C@H](CC(C)C)C(=O)N[C@H]1C(=O)N[C@@H](CC(N)=O)C(=O)N[C@H]2C(=O)N[C@H]3C(=O)N[C@H](C(=O)N[C@H](C(=O)O)c4cc(O)cc(O)c4-c4cc3ccc4O)[C@H](O)c3ccc(c(Cl)c3)Oc3cc2cc(c3O[C@@H]2O[C@H](CO)[C@@H](O)[C@H](O)[C@H]2O[C@H]2C[C@](C)(N)[C@H](O)[C@H](C)O2)Oc2ccc(cc2Cl)[C@H]1O [Vancomycin]
Growth Found: Growth at concentration (Average MIC data) (S. pneumoniae; 0.125 μg/ml) | Growth at concentration (Average MIC data) (S. pneumoniae; 0.25 μg/ml) | Growth at concentration (Average MIC data) (Streptococcus pneumoniae; 0.125 μg/ml) | Growth at concentration (Average MIC data) (Streptococcus pneumoniae; 0.25 μg/ml) | Growth at concentration (Average MIC data) (Streptococcus pneumoniae; 0.5 μg/ml) | Growth at concentration (Average MIC data) (S. aurens (MRSA); 0.125 μg/ml) | Growth at concentration (Average MIC data) (S. aurens (MRSA); 0.25 μg/ml) | Growth at concentration (Average MIC data) (S. aurens (MRSA); 0.5 μg/ml) | Growth at concentration (Average MIC data) (S. aurens (MRSA); 1 μg/ml) | Growth at concentration (Average MIC data) (S. aurens (MRSA); 2 μg/ml) | Growth at concentration (Average MIC data) (S. aurens; 0.125 μg/ml) | Growth at concentration (Average MIC data) (S. aurens; 0.25 μg/ml) | Growth at concentration (Average MIC data) (S. aurens; 0.5 μg/ml) | Growth at concentration (Average MIC data) (S. aurens; 1 μg/ml) | Growth at concentration (Average MIC data) (S. aurens; 2 μg/ml) | Growth at concentration (Average MIC data) (Enterococcus; 0.125 μg/ml) | Growth at concentration (Average MIC data) (Enterococcus; 0.25 μg/ml)
No growth: Growth at concentration (Average MIC data) (S. pneumoniae; 0.5 μg/ml) | Growth at concentration (Average MIC data) (S. pneumoniae; 1 μg/ml) | Growth at concentration (Average MIC data) (S. pneumoniae; 2 μg/ml) | Growth at concentration (Average MIC data) (S. pneumoniae; 4 μg/ml) | Growth at concentration (Average MIC data) (S. pneumoniae; 8 μg/ml) | Growth at concentration (Average MIC data) (S. pneumoniae; 16 μg/ml) | Growth at concentration (Average MIC data) (S. pneumoniae; 32 μg/ml) | Growth at concentration (Average MIC data) (S. pneumoniae; 64 μg/ml) | Growth at concentration (Average MIC data) (S. pneumoniae; 128 μg/ml) | Growth at concentration (Average MIC data) (Streptococcus pneumoniae; 1 μg/ml) | Growth at concentration (Average MIC data) (Streptococcus pneumoniae; 2 μg/ml) | Growth at concentration (Average MIC data) (Streptococcus pneumoniae; 4 μg/ml) | Growth at concentration (Average MIC data) (Streptococcus pneumoniae; 8 μg/ml) | Growth at concentration (Average MIC data) (Streptococcus pneumoniae; 16 μg/ml) | Growth at concentration (Average MIC data) (Streptococcus pneumoniae; 32 μg/ml) | Growth at concentration (Average MIC data) (Streptococcus pneumoniae; 64 μg/ml) | Growth at concentration (Average MIC data) (Streptococcus pneumoniae; 128 μg/ml) | Growth at concentration (Average MIC data) (S. aurens (MRSA); 4 μg/ml) | Growth at concentration (Average MIC data) (S. aurens (MRSA); 8 μg/ml) | Growth at concentration (Average MIC data) (S. aurens (MRSA); 16 μg/ml) | Growth at concentration (Average MIC data) (S. aurens (MRSA); 32 μg/ml) | Growth at concentration (Average MIC data) (S. aurens (MRSA); 64 μg/ml) | Growth at concentration (Average MIC data) (S. aurens (MRSA); 128 μg/ml) | Growth at concentration (Average MIC data) (S. aurens; 4 μg/ml) | Growth at concentration (Average MIC data) (S. aurens; 8 μg/ml) | Growth at concentration (Average MIC data) (S. aurens; 16 μg/ml) | Growth at concentration (Average MIC data) (S. aurens; 32 μg/ml) | Growth at concentration (Average MIC data) (S. aurens; 64 μg/ml) | Growth at concentration (Average MIC data) (S. aurens; 128 μg/ml) | Growth at concentration (Average MIC data) (Enterococcus; 0.5 μg/ml) | Growth at concentration (Average MIC data) (Enterococcus; 1 μg/ml) | Growth at concentration (Average MIC data) (Enterococcus; 2 μg/ml) | Growth at concentration (Average MIC data) (Enterococcus; 4 μg/ml) | Growth at concentration (Average MIC data) (Enterococcus; 8 μg/ml) | Growth at concentration (Average MIC data) (Enterococcus; 16 μg/ml) | Growth at concentration (Average MIC data) (Enterococcus; 32 μg/ml) | Growth at concentration (Average MIC data) (Enterococcus; 64 μg/ml) | Growth at concentration (Average MIC data) (Enterococcus; 128 μg/ml)

CO/N=C(\C(=O)N[C@@H]1C(=O)N2C(C(=O)[O-])=C(C[N+]3(C)CCCC3)CS[C@H]12)c1csc(N)n1 [cefepime]
−0.61+/−0.24 Delta log(10) cfu/mL×h: bactericidal activity [1]
